Laboratory results: publication PMC8733726, “Dioctanoyl Ultrashort Tetrabasic β-Peptides Sensitize Multidrug-Resistant Gram-Negative Bacteria to Novobiocin and Rifampicin” (Frontiers in Microbiology, 2021)
≈ marks a conversion by molar mass, not a printed value. Read-outs that look alike come from different tables or passages of the source.

Assays:
[1] = tested on: MDR E. coli; assay type: cell-based, Escherichia coli; conditions: 94393; antibiotic alone
Description: (§1) The adjuvant activities of dUSTBβPs were evaluated using checkerboard assay as previously described ([Berry et al., 2019]). Overnight-grown bacterial culture diluted in saline to 0.5 McFarland turbidity was successively diluted 1:50 in MHB to achieve a final concentration of 5 × 10^5 CFU/mL for inoculation. The antibiotic and adjuvant were serially diluted 2-fold along the x-axis and y-axis, respectively, resulting in varying concentrations of both agents in each well. Subsequently, the 96-well plate was incubated with equal volumes of bacterial inoculum at 37°C for 18 h. Confirmation of turbidity was done using an EMax Plus microplate reader (Molecular Devices, United States) at a wavelength of 590 nm. Wells comprising MHB alone or in the presence of bacterial cells were used as negative or positive controls, respectively. Fractional inhibitory concentration index (FICI) is determined by adding the FICs of both antibiotic and adjuvant. The FIC of the antibiotic is calculated by dividing the MIC of the antibiotic in the presence of the adjuvant by the MIC of the antibiotic alone. Similarly, the FIC of the adjuvant is calculated by dividing the MIC of the adjuvant in the presence of the antibiotic by the MIC of the adjuvant alone. FICI ≤ 0.5, 0.5 < x ≤ 4, and >4 were deemed synergistic, additive, and antagonistic, respectively ([Meletiadis et al., 2010]).

[2] = tested on: wild-type E. coli ATCC 25922; assay: microbe, parasite or virus in culture; assay type: cell-based, Escherichia coli; conditions: ATCC 25922; for MICcombo: antibiotic with dUSTBβP 3 at 8 μg/mL
Outline: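 Checkerboard: antibiotic and adjuvant each 2-fold serially diluted against each other, inoculum 5 × 10^5 CFU/mL in MHB, 18 h at 37°C, growth by OD590. FICI = sum of MIC-in-combination/MIC-alone ratios for both agents; ≤0.5 synergy, >0.5–4 additive, >4 antagonism.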

[3] = tested on: MDR K. pneumoniae; assay type: cell-based, Klebsiella pneumoniae; conditions: antibiotic alone
Description: as §1

[4] = in vivo; cited from earlier work
[5] = tested on: MDR clinical isolates of A. baumannii; assay type: cell-based, Acinetobacter baumannii; conditions: antibiotic alone
Description: as §1

[6] = tested on: wild-type P. aeruginosa PAO1; assay: microbe, parasite or virus in culture; assay type: cell-based, Pseudomonas aeruginosa; conditions: PAO1; for MICcombo: antibiotic with dUSTBβP 3 at 8 μg/mL
Outline: (§2)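 Checkerboard in MHB with 5 × 10^5 CFU/mL inoculum, antibiotic and adjuvant each serially 2-fold diluted on crossed axes. Growth read as turbidity at 590 nm; FICI is the sum of each agent's MIC in combination divided by its MIC alone.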

[7] = tested on: MDR E. cloacae; assay: Checkerboard assay, MDR clinical isolates; assay type: cell-based, Enterobacter cloacae; conditions: antibiotic alone
Description: as §1

[8] = tested on: wild-type A. baumannii ATCC 17978; assay: Checkerboard assay; assay type: cell-based, Acinetobacter baumannii; conditions: ATCC 17978; for MICcombo: antibiotic with dUSTBβP 3 at 8 μg/mL
Outline: as §2

[9] = tested on: MDR clinical isolates of P. aeruginosa; assay: Checkerboard assay, MDR clinical isolates; assay type: cell-based, Pseudomonas aeruginosa; conditions: antibiotic alone
Description: as §1

[10] = tested on: MDR A. baumannii 110193; assay: Time-kill assay; assay type: cell-based, Acinetobacter baumannii; conditions: 32 μg/mL novobiocin or 0.5 μg/mL rifampicin alone
Description: (§3) Overnight-grown bacterial culture diluted in PBS to 0.5 McFarland turbidity was successively diluted 1:50 in lysogeny broth (LB). Cell cultures in the presence of dUSTBβP 3, novobiocin, or rifampicin, or combinations of adjuvant and antibiotic were incubated at 37°C. At designated intervals, 100 μL aliquots acquired from each culture tube were serially diluted in PBS and plated on LB agar plates.

[11] = tested on: wild-type A. baumannii ATCC 17978; assay: Time-kill assay; assay type: cell-based, Acinetobacter baumannii; conditions: 32 μg/mL novobiocin or 0.5 μg/mL rifampicin alone
Description: as §3

[12] = tested on: MDR E. cloacae clinical isolates; assay: Resistance phenotype (MICs of antibiotics) of MDR clinical isolates; assay type: cell-based, Enterobacter cloacae
[13] = in vivo; cited from earlier work; remark: listed apart in the source
[14] = tested on: MDR K. pneumoniae clinical isolates; assay: Resistance phenotype (MICs of antibiotics) of MDR clinical isolates; assay type: cell-based, Klebsiella pneumoniae
[15] = tested on: MDR A. baumannii clinical isolates; assay: as above; assay type: cell-based, Acinetobacter baumannii
[16] = tested on: MDR E. coli clinical isolates; assay: as above; assay type: cell-based, Escherichia coli
[17] = tested on: MDR P. aeruginosa clinical isolates; assay: as above; assay type: cell-based, Pseudomonas aeruginosa
[18] = antibiotic alone (Supplementary Table 7)

Compound: CO[C@@H]1[C@@H](OC(N)=O)[C@@H](O)[C@H](Oc2ccc3c(O)c(NC(=O)c4ccc(O)c(CC=C(C)C)c4)c(=O)oc3c2C)OC1(C)C [Novobiocin]
- MICantibiotic [1]: 64 µg/mL
- MICantibiotic ([2]; antibiotic alone): 64 µg/mL
- MICcombo [2]: 0.125 µg/mL
- MIC ([2]; Escherichia coli, ATCC25922, 18 h, antibiotic alone (Supplementary Table 7), read-out: MICantibiotic): 64 µg/mL
- MICantibiotic [3]; 113250: 128 µg/mL
- MICantibiotic [3]; 113254: 256 µg/mL
- MICantibiotic [3]; 116381: 256 µg/mL
- Steady-state serum concentration [4]: 5 µg/mL
- MICantibiotic [5]; 92247: 4 µg/mL
- MICantibiotic [5]; 110193: 128 µg/mL
- MICantibiotic ([5]; AB027): 8 µg/mL
- MICantibiotic ([5]; AB031): 4 µg/mL
- MICantibiotic ([5]; LAC-4): > 0.5 µg/mL
- MICantibiotic ([5]; LAC-4, listed as novobiocin): 1 µg/mL
- MICantibiotic ([6]; antibiotic alone): 1,024 μg/mL
- MICcombo [6]: 32 µg/mL
- MIC ([6]; Pseudomonas aeruginosa, 18 h, antibiotic alone (Supplementary Table 7), read-out: MICantibiotic): 1020 µg/mL (≈ 1670 µM)
- MICantibiotic [7]; 117029: 512 µg/mL
- MICantibiotic [7]; 118564: 256 µg/mL
- MICantibiotic [7]; 121187: 16 µg/mL
- MICantibiotic ([8]; antibiotic alone): 16 µg/mL
- MICcombo [8]: 0.25 µg/mL
- MIC ([8]; Acinetobacter baumannii, ATCC17978, 18 h, antibiotic alone (Supplementary Table 7), read-out: MICantibiotic): 16 µg/mL
- MICantibiotic ([9]; PA259-96196): 1024 µg/mL
- MICantibiotic ([9]; PA259-96196, listed as novobiocin): 1,024 μg/mL
- MICantibiotic ([9]; PA262-101856): 1024 µg/mL
- MICantibiotic ([9]; PA262-101856, listed as novobiocin): 1,024 μg/mL
- MICantibiotic ([9]; PA264-104354): 1024 µg/mL
- MICantibiotic ([9]; PA264-104354, listed as novobiocin): 1,024 μg/mL
- MICantibiotic ([9]; PA91433): 1024 µg/mL
- MICantibiotic ([9]; PA91433, listed as novobiocin): 1,024 μg/mL
- MICantibiotic ([9]; PA114228): 1024 µg/mL
- MICantibiotic ([9]; PA114228, listed as novobiocin): 1,024 μg/mL
- Time-kill outcome [10]: Bacteriostatic
- Time-kill outcome [11]: Bacteriostatic

Compound: Colistin
- MICantibiotic [2, 18]: 0.125
- MICcombo [2]: 0.031 µg/mL
- MIC [12]; 117029: 0.25 µg/mL
- MIC [12]; 118564: > 16 µg/mL
- MIC [12]; 121187: > 16 µg/mL
- In vivo elimination half-life [13]: 5 h
- MIC [14]; 113250: > 16 µg/mL
- MIC [14]; 113254: > 16 µg/mL
- MIC [14]; 116381: 1 µg/mL
- MICantibiotic [6, 18]: 1
- MICcombo [6]: 1 µg/mL
- MICantibiotic [8, 18]: 0.5
- MICcombo [8]: 0.25 µg/mL
- MIC [15]; 92247: 4 µg/mL
- MIC [15]; 110193: 0.5 µg/mL
- MIC ([15]; AB027): 0.25 µg/mL
- MIC ([15]; AB031): 0.25 µg/mL
- MIC ([15]; LAC-4): 0.125 µg/mL
- MIC ([16]; 94393 (mcr-1 +)): 4 µg/mL
- MIC ([16]; 94474 (mcr-1 +)): 16 µg/mL
- MIC [16]; 107115: 0.125 µg/mL
- MIC ([17]; 259-96196): 1 µg/mL
- MIC ([17]; 262-101856): 1 µg/mL
- MIC ([17]; 264-104354): 1 µg/mL
- MIC [17]; 91433: 4 µg/mL
- MIC [17]; 114228: 4 µg/mL
